Assays:
[1] = molecular target: Serine/threonine-protein kinase 10 (Homo sapiens) (UniProt O94804); conditions: Compound concentration 1000.0 nM
[2] = molecular target: Phosphatidylinositol 4-phosphate 3-kinase C2 domain-containing subunit beta (Homo sapiens) (UniProt O00750); conditions: Compound concentration 1000.0 nM
[3] = molecular target: Myosin-IIIb (Homo sapiens) (UniProt Q8WXR4); conditions: Compound concentration 1000.0 nM
[4] = molecular target: Tyrosine-protein kinase Fyn (Homo sapiens) (UniProt P06241); conditions: Compound concentration 1000.0 nM
[5] = test system: Epidermal growth factor receptor (Homo sapiens), P00533 [UNDEFINED MUTATION]; conditions: Compound concentration 1000.0 nM
[6] = molecular target: Aurora kinase C (Homo sapiens) (UniProt Q9UQB9); conditions: Compound concentration 1000.0 nM
[7] = molecular target: Myotonin-protein kinase (Homo sapiens) (UniProt Q09013); conditions: Compound concentration 1000.0 nM
[8] = molecular target: RAC-beta serine/threonine-protein kinase (Homo sapiens) (UniProt P31751); conditions: Compound concentration 1000.0 nM
[9] = molecular target: Ribosomal protein S6 kinase alpha-6 (Homo sapiens) (UniProt Q9UK32); conditions: Compound concentration 1000.0 nM
[10] = molecular target: Megakaryocyte-associated tyrosine-protein kinase (Homo sapiens) (UniProt P42679); conditions: Compound concentration 1000.0 nM
Megakaryocyte-associated tyrosine-protein kinase (Homo sapiens), sequence (P42679 whole entry): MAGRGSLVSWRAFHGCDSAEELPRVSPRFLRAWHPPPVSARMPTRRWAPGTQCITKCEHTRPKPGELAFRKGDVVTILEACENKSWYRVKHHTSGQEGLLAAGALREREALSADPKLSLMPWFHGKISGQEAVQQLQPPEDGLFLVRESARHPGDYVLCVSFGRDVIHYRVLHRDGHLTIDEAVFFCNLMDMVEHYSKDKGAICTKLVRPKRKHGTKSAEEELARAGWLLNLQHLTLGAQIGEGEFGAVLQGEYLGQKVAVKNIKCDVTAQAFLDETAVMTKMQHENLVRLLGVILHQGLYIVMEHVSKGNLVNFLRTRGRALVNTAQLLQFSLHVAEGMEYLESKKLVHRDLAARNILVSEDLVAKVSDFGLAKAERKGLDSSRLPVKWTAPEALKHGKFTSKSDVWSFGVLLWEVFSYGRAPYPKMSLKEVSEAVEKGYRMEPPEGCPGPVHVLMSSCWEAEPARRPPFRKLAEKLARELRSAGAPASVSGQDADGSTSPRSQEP

[11] = molecular target: Sigma non-opioid intracellular receptor 1 (Homo sapiens) (UniProt Q99720); conditions: Compound concentration 10.0 uM
[12] = molecular target: Serine/threonine-protein kinase WNK2 (Homo sapiens) (UniProt Q9Y3S1); conditions: Compound concentration 1000.0 nM
[13] = molecular target: Mitogen-activated protein kinase 7 (Homo sapiens) (UniProt Q13164); conditions: Compound concentration 1000.0 nM
[14] = molecular target: Serine/threonine-protein kinase MRCK beta (Homo sapiens) (UniProt Q9Y5S2); conditions: Compound concentration 1000.0 nM
[15] = molecular target: Serine/threonine-protein kinase LATS1 (Homo sapiens) (UniProt O95835); conditions: Compound concentration 1000.0 nM
[16] = molecular target: Dual specificity mitogen-activated protein kinase kinase 3 (Homo sapiens) (UniProt P46734); conditions: Compound concentration 1000.0 nM
Dual specificity mitogen-activated protein kinase kinase 3 (Homo sapiens), sequence (P46734 whole entry): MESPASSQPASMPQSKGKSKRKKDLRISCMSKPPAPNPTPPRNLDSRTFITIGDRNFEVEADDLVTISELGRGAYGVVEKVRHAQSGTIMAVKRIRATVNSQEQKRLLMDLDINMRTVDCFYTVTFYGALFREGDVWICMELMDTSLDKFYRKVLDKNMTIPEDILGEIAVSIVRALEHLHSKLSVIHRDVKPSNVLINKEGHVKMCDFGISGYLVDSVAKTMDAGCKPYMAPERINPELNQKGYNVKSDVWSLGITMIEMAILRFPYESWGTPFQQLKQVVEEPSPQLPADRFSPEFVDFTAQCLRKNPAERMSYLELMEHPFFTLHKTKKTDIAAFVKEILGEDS

[17] = test system: Tyrosine-protein kinase ABL1 (Homo sapiens), P00519 [H396P]; conditions: Compound concentration 1000.0 nM
[18] = molecular target: Receptor-interacting serine/threonine-protein kinase 1 (Homo sapiens) (UniProt Q13546); conditions: Compound concentration 1000.0 nM
[19] = molecular target: Peripheral plasma membrane protein CASK (Homo sapiens) (UniProt O14936); conditions: Compound concentration 1000.0 nM
Peripheral plasma membrane protein CASK (Homo sapiens), sequence (O14936 whole entry): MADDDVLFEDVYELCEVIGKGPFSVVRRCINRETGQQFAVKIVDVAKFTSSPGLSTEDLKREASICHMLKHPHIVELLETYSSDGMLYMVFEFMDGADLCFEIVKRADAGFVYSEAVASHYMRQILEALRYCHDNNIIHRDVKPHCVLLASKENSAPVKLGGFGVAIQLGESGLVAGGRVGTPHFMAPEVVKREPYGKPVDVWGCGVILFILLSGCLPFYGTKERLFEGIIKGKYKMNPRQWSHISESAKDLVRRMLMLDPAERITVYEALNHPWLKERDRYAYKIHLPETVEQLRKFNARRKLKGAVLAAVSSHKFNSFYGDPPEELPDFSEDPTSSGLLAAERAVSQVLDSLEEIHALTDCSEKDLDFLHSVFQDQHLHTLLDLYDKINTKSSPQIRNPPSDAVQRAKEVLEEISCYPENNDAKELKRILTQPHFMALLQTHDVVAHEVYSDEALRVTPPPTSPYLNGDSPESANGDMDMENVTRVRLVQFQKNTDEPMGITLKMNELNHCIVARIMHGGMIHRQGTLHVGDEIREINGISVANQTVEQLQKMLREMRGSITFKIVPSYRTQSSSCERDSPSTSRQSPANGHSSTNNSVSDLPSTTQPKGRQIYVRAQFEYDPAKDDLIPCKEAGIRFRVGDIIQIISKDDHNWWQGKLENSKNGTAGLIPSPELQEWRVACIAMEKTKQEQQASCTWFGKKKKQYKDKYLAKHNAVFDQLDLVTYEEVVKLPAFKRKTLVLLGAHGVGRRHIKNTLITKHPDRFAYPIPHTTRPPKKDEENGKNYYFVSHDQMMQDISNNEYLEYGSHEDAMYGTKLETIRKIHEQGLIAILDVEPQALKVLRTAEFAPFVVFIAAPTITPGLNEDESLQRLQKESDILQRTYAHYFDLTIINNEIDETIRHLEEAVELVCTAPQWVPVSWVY

[20] = molecular target: Mitogen-activated protein kinase kinase kinase 9 (Homo sapiens) (UniProt P80192); conditions: Compound concentration 1000.0 nM
[21] = molecular target: Mitogen-activated protein kinase kinase kinase kinase 2 (Homo sapiens) (UniProt Q12851); conditions: Compound concentration 1000.0 nM
[22] = molecular target: Homeodomain-interacting protein kinase 4 (Homo sapiens) (UniProt Q8NE63); conditions: Compound concentration 1000.0 nM
[23] = molecular target: Tyrosine-protein kinase JAK1 (Homo sapiens) (UniProt P23458); conditions: Compound concentration 1000.0 nM
Tyrosine-protein kinase JAK1 (Homo sapiens), sequence (P23458 whole entry): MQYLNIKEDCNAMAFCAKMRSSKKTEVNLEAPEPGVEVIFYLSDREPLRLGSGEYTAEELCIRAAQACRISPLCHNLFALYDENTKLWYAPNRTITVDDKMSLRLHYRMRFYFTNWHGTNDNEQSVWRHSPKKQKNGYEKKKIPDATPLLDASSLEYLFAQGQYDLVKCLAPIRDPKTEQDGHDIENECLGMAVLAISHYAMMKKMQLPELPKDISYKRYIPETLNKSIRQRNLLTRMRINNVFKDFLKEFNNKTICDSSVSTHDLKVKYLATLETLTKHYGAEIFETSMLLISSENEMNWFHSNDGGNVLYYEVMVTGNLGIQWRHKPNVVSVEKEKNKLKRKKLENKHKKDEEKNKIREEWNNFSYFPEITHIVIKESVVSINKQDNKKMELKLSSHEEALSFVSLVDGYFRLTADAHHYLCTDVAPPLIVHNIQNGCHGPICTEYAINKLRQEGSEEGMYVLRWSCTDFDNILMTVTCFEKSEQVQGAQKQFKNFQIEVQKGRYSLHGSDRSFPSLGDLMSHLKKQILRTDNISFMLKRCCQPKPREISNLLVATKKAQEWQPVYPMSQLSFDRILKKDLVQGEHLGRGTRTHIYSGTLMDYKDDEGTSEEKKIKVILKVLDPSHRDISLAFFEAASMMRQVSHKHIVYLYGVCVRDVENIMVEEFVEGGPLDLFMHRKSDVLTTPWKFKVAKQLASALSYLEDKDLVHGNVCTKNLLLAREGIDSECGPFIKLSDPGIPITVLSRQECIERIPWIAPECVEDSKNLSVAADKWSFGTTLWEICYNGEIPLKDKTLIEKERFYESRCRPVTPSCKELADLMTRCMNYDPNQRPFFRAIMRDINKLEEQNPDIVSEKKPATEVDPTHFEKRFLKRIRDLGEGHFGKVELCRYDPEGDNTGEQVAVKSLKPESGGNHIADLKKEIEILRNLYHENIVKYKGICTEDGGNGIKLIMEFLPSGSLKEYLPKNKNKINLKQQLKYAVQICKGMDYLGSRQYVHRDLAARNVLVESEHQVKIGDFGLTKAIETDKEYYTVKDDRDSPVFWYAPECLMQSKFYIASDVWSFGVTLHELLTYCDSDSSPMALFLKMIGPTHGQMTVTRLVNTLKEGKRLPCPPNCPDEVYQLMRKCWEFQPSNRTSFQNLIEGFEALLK

[24] = molecular target: Non-receptor tyrosine-protein kinase TNK1 (Homo sapiens) (UniProt Q13470); conditions: Compound concentration 1000.0 nM
[25] = molecular target: LIM domain kinase 2 (Homo sapiens) (UniProt P53671); conditions: Compound concentration 1000.0 nM
[26] = molecular target: 5-hydroxytryptamine receptor 2A (Homo sapiens) (UniProt P28223); conditions: Compound concentration 10.0 uM
[27] = molecular target: Inhibitor of nuclear factor kappa-B kinase subunit epsilon (Homo sapiens) (UniProt Q14164); conditions: Compound concentration 1000.0 nM
[28] = molecular target: Serine/threonine-protein kinase RIO3 (Homo sapiens) (UniProt O14730); conditions: Compound concentration 1000.0 nM
[29] = molecular target: TGF-beta receptor type-1 (Homo sapiens) (UniProt P36897); conditions: Compound concentration 1000.0 nM
TGF-beta receptor type-1 (Homo sapiens), sequence (P36897 whole entry): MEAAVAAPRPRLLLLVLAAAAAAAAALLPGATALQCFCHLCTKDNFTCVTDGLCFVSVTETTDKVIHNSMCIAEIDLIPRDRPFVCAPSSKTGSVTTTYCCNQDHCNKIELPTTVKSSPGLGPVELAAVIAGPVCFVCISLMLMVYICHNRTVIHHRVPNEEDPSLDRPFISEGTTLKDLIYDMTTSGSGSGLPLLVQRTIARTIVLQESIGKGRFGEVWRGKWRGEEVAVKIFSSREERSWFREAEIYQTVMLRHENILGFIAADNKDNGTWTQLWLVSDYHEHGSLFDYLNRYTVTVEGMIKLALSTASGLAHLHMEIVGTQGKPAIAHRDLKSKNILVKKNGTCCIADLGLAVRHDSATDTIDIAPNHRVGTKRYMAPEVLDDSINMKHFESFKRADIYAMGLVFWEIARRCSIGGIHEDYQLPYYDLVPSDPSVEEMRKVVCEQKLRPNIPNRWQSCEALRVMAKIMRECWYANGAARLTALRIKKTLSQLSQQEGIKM

[30] = molecular target: Tyrosine-protein kinase Mer (Homo sapiens) (UniProt Q12866); conditions: Compound concentration 1000.0 nM
[31] = molecular target: Tyrosine-protein kinase Lyn (Homo sapiens) (UniProt P07948); conditions: Compound concentration 1000.0 nM
[32] = molecular target: Ribosomal protein S6 kinase alpha-2 (Homo sapiens) (UniProt Q15349); conditions: Compound concentration 1000.0 nM
[33] = molecular target: Non-receptor tyrosine-protein kinase TYK2 (Homo sapiens) (UniProt P29597); conditions: Compound concentration 1000.0 nM
[34] = molecular target: Serine/threonine-protein kinase MARK1 (Homo sapiens) (UniProt Q9P0L2); conditions: Compound concentration 1000.0 nM
[35] = molecular target: Tyrosine-protein kinase JAK3 (Homo sapiens) (UniProt P52333); conditions: Compound concentration 1000.0 nM
Tyrosine-protein kinase JAK3 (Homo sapiens), sequence (P52333 whole entry): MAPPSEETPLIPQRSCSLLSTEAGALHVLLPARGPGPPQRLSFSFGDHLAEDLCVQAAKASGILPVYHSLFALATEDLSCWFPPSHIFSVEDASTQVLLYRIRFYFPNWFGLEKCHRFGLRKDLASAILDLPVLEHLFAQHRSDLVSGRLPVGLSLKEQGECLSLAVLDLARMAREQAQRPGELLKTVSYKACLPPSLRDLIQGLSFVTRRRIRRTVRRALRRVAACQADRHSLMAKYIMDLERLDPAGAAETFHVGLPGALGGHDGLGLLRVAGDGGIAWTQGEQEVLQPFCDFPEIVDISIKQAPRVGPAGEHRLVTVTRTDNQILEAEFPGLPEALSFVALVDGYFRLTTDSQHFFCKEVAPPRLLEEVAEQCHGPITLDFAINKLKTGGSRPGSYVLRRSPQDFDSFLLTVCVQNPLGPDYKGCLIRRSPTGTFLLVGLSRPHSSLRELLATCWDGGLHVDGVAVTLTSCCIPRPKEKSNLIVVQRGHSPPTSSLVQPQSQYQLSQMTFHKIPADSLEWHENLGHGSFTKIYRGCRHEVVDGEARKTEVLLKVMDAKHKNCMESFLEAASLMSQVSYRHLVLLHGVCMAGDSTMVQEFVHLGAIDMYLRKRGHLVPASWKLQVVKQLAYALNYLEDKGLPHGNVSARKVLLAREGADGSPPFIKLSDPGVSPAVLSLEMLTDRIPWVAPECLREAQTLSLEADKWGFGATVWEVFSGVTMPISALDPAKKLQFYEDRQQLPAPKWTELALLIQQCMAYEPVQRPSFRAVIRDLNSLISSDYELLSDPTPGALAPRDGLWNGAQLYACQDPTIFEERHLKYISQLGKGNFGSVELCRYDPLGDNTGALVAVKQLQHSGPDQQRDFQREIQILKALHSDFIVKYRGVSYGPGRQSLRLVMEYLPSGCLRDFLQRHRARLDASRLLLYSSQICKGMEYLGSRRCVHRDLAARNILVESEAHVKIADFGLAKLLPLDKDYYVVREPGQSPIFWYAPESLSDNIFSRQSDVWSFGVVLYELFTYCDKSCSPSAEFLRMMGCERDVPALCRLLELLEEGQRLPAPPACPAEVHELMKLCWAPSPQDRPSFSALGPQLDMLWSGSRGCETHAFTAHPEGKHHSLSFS

[36] = molecular target: Cyclin-dependent kinase 15 (Homo sapiens) (UniProt Q96Q40); conditions: Compound concentration 1000.0 nM
Cyclin-dependent kinase 15 (Homo sapiens), sequence (Q96Q40 whole entry): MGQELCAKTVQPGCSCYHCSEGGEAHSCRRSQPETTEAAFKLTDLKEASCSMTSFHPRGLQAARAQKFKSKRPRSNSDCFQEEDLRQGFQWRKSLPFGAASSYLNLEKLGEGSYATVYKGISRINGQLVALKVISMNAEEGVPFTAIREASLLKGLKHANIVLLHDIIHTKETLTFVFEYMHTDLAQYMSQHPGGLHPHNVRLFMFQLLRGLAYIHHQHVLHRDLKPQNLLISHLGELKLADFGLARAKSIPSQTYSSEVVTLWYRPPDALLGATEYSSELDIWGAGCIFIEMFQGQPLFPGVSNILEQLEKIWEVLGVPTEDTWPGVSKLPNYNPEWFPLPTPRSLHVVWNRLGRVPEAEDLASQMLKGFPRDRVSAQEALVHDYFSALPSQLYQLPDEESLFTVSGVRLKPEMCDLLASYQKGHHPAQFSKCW

[37] = molecular target: Serine/threonine-protein kinase BRSK2 (Homo sapiens) (UniProt Q8IWQ3); conditions: Compound concentration 1000.0 nM
[38] = molecular target: Tyrosine-protein kinase Fes/Fps (Homo sapiens) (UniProt P07332); conditions: Compound concentration 1000.0 nM
[39] = molecular target: Ephrin type-B receptor 6 (Homo sapiens) (UniProt O15197); conditions: Compound concentration 1000.0 nM
[40] = molecular target: 5-hydroxytryptamine receptor 1A (Homo sapiens) (UniProt P08908); conditions: Compound concentration 10.0 uM
[41] = test system: Tyrosine-protein kinase ABL1 (Homo sapiens), P00519 [F317L]; conditions: Compound concentration 1000.0 nM
[42] = molecular target: Casein kinase I isoform alpha (Homo sapiens) (UniProt P48729); conditions: Compound concentration 1000.0 nM
[43] = molecular target: Tyrosine-protein kinase receptor UFO (Homo sapiens) (UniProt P30530); conditions: Compound concentration 1000.0 nM
[44] = molecular target: NT-3 growth factor receptor (Homo sapiens) (UniProt Q16288); conditions: Compound concentration 1000.0 nM
[45] = molecular target: G protein-coupled receptor kinase 3 (Homo sapiens) (UniProt P35626); conditions: Compound concentration 1000.0 nM

Cc1nc(N2CC[C@@H](O)C2)ncc1-c1cc(C(F)(F)F)cc2[nH]ncc12 [TP-004]
active: residual activity [12] 41% | residual activity [39] 36%
inactive: residual activity [1] 100% | residual activity [2] 100% | residual activity [3] 93% | residual activity [4] 100% | residual activity [5] 90% | residual activity [6] 100% | residual activity [7] 80% | residual activity [8] 87% | residual activity [9] 51% | residual activity [10] 86% | inhibition [11] 45.5% | residual activity [13] 83% | residual activity [14] 100% | residual activity [15] 81% | residual activity [16] 90% | residual activity [17] 77% | residual activity [18] 100% | residual activity [19] 95% | residual activity [20] 100% | residual activity [21] 76% | residual activity [22] 82% | residual activity [23] 100% | residual activity [24] 100% | residual activity [25] 100% | inhibition [26] -5.62% | residual activity [27] 89% | residual activity [28] 100% | residual activity [29] 100% | residual activity [30] 100% | residual activity [31] 100% | residual activity [32] 100% | residual activity [33] 58% | residual activity [34] 74% | residual activity [35] 77% | residual activity [36] 81% | residual activity [37] 90% | residual activity [38] 100% | inhibition [40] 20% | residual activity [41] 58% | residual activity [42] 96% | residual activity [43] 80% | residual activity [44] 66% | residual activity [45] 87%

— ChEMBL document CHEMBL4507303, “Data for DCP probe TP-004” (2021)
